Test results as given in patent US20260027073A1, “USE OF SMALL-MOLECULE COMPOUND HAVING NAPHTHYLAMINE STRUCTURE” (HANGZHOU PHECDAMED CO., LTD., priority 2023, published 2026).

What was measured:
[1] = system: myocardial infarction rats; assay: Myocardial infarction by coronary artery ligation; assay type: in vivo, SD rats; settings: TJ01-013 30 mg/kg, Entresto 10 mg/kg, oral, 4 weeks
Method: 180 g-200 g SD rats were anesthetized by chloral hydrate after fasting for 12 h, the hair from the mandible to the upper part of the abdominal cavity and the ventral surfaces of the limbs was removed cleanly, and they were fixed on the surgical table, firstly, a small incision of about 1.5 cm was made in the neck with a scalpel, and then the subcutaneous muscle layer was bluntly separated with surgical scissors to expose the trachea, and then the tracheal tube was intubated and connected to the animal respiratory machine. After sterilizing with iodophor, the skin was cut on the left side of the chest between the 3rd and 4th ribs, and the muscles were bluntly separated to expose the ribs. The 3rd rib was cut with surgical scissors, hemostatic forceps were used to clamp and break the cut rib, and an eyelid opener was placed to peel the pericardium. After the pericardium was cut, a cotton swab moistened with saline was used to gently pivot the heart to locate the left auricle and coronary arteries. A threaded suture needle was clamped with a microscopic needle holder, and passed through the myocardium from right to left at 2-3 mm below the left auricle to ligate the coronary artery. At the end of the ligation, the organs in the thoracic cavity were recovered with saline-soaked cotton swabs, and figure-of-eight sutures were applied to the third and fourth ribs. After the rib layer suture was completed, subcutaneous muscle layering suture was performed, and the skin was finally sutured. After dialing out the tracheal tube, the rats were closely observed whether they had spontaneous respiration or not, and if there was no respiration they should be immediately pressed on the chest cavity for cardiopulmonary resuscitation. The electrocardiograph was connected to measure the postoperative electrocardiogram. […] The drug was administered orally by gavage in a volume of 10 ml/kg, and the frequency of administration was once a day for 4 weeks, and then the rats were anesthetized for cardiac ultrasound.
The rats were anesthetized by intraperitoneal injection of sodium pentobarbital 40 mg/kg, and the limbs were fixed on a wooden board in supine position, and the board was tilted to the left at 30 degrees. The chest was shaved and a II lead ECG was connected. A ULTRAMARK 9 ultrasonic diagnostic instrument from ATL, USA was used with a wide bandwidth line array probe with a frequency of 10 MHz-5 MHz. The Doppler detection frequency was 6.0 MHz, the length of the probe was 38 mm, the gain of the instrument was fixedly set as 50 dB in the experiment, and the depth of the image was adjusted to 2.5 cm. The probe was placed on the left side of the sternum at 10-30 degrees from the midline of the sternum to display the parasternal left ventricular long-axis view, and the probe was rotated clockwise by 90 degrees to display the left ventricular view. Doppler flow measurements of the mitral and aortic valves were performed in the parasternal left ventricular long-axis view and the pulmonary artery long-axis view. Ultrasound measurement indexes included left ventricular end-diastolic internal diameter (LVDd), end-systolic internal diameters (LVDs), left ventricular ejection fraction EF, left ventricular short-axis shortening rate FS, and infarct size.

[2] = system: autoimmune myocarditis model rats; assay: Autoimmune myocarditis model; assay type: in vivo, Lewis rats; settings: for left ventricular end-diastolic transverse diameter LVIDd / left ventricular end-systolic transverse diameter LVIDs / ejection fraction EF / short-axis fractional shortening FS / serum CK-MB level: 30 mg/kg oral gavage, 4 weeks; for left ventricular end-diastolic transverse diameter LVIDd / left ventricular end-systolic transverse diameter LVIDs: FIG. 79; for ejection fraction EF / short-axis fractional shortening FS: FIG. 80; for serum CK-MB level: FIG. 81
Method: 8-week-old male SPF-grade Lewis rats were adaptively fed for one week to construct an autoimmune myocarditis model. The rats were divided into two groups, normal control group (normal rats, routine feeding) and model group, in which porcine cardiac myosin used to induce autoimmunity and Freund's adjuvant were fully mixed in 1:1 in the model group (purified porcine cardiac myosin was dissolved in PBS solution, with its concentration being controlled to 10 g/L, under sterile conditions the solution was mixed with the complete Freund's adjuvant CFA in 1:1 equal volume and emulsified completely, so that it became a homogeneous emulsion), a total of 0.2 ml of the immunization mixture was injected subcutaneously into multiple points such as the bilateral groin and axilla of the rats. Normal control rats were immunized with myosin-free PBS and CFA emulsion. From the 14th day after immunization, the model groups were administrated in groups, and were divided into three groups: model group (model, treated with 0.5% CMC-Na by oral gavage, n=8) TJ01-013 treatment group (TJ01-013, 30 mg/kg TJ01-013 by oral gavage, n=8), I-14-1 treatment group (I-14-1, 30 mg/kg I-14-1 by oral gavage, n=8). A normal control group (Control, treated with 0.5% CMC-Na by oral gavage, n=8) was further provided, and the administration of the drug was started immediately after grouping, and the drug was administered for a total of 4 weeks. At the end of the administration, rats were weighed, anesthetized and blood was taken, and serum was extracted and the corresponding physiological indexes were detected. After euthanasia, the rats' hearts were stripped and weighed, and the organ coefficients of the hearts were calculated.
After the end of administration, rats were weighed, anesthetized with 10% chloral hydrate via intraperitoneal injection, and then subjected to echocardiography in the supine and slightly left lateral position after chest hair removal, and the average value was taken from 3 repetitions. The detection indexes include left ventricular end-diastolic transverse diameter LVIDd, left ventricular end-systolic transverse diameter LVIDs, short-axis fractional shortening FS, and ejection fraction EF.

SMILES | infarct size ([1]; FIG. 37) | left ventricular end-diastolic diameter (LVDd) ([1]; FIG. 38) | end-systolic diameter (LVDs) ([1]; FIG. 39) | left ventricular ejection fraction EF ([1]; FIG. 40) | left ventricular short-axis fractional shortening FS ([1]; FIG. 41) | left ventricular end-diastolic transverse diameter LVIDd [2] | left ventricular end-systolic transverse diameter LVIDs [2] | ejection fraction EF [2] | short-axis fractional shortening FS [2] | serum CK-MB level [2] | treatment of TJ01-013 compared with I-14-1 ([2]; LVIDd/LVIDs, EF/FS, CK-MB)
O=C(O)C[S+]([O-])c1cc(NS(=O)(=O)c2ccc(Br)cc2)c2ccccc2c1O (stereo not shown) [I-1] | reduced | no significant effect | did not have a significant effect | significantly increased | significantly increased | reduce | reduce | increase | increase | decrease | significantly better
O=C(O)C[S+]([O-])c1cc(NS(=O)(=O)c2ccc(C(F)(F)F)cc2)c2ccccc2c1O (stereo not shown) [I-14-1] | – | – | – | – | – | reduce | reduce | increase | increase | decrease | –
